Data published in publication PMC6152727, “Potential of Icariin Metabolites from Epimedium koreanum Nakai as Antidiabetic Therapeutic Agents” (Molecules : A Journal of Synthetic Chemistry and Natural …, 2017).

What was measured:
Assay type in all cases: biochemical
human recombinant PTP1B [1] = biological target: T1, human recombinant PTP1B (Homo sapiens, UniProt P18031); experiment: PTP1B activity assay (pNPP substrate); details: mean ± SEM of triplicate experiments
T1 construct: purchased Biomol International LP (Plymouth Meeting, PA, USA)
T1 sequence (P18031 1-435): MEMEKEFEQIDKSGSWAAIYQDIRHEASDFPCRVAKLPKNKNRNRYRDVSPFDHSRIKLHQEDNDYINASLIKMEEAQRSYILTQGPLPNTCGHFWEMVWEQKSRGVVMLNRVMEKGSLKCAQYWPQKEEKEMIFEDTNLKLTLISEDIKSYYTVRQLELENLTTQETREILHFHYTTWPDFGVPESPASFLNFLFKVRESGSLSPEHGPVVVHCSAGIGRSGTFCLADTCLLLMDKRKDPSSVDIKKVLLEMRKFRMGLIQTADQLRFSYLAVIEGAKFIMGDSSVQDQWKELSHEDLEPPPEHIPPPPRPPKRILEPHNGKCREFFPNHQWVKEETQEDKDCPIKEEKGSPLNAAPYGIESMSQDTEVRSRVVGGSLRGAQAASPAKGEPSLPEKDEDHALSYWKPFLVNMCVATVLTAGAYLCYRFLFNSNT
Procedure: The abilities of the aerial parts of E. koreanum and their constituents to inhibit human recombinant PTP1B activity were evaluated using pNPP as a substrate. […] After incubation at 37 °C for 20 min in the dark, the reaction was terminated by addition of 10 M NaOH. The amount of p-nitrophenylate produced by enzymatic dephosphorylation of pNPP was determined by measuring the absorbance at 405 nm using a microplate spectrophotometer (Molecular Devices). Non-enzymatic dephosphorylation of pNPP was corrected by measuring the increase in absorbance at 405 nm obtained in the absence of PTP1B. […] The percent inhibition was calculated as {(AC − AS)/AC} × 100, where AC is the absorbance of the control, and AS is the absorbance of the sample. The IC50 is expressed as the mean ± SEM of triplicate experiments.

yeast α-glucosidase = experiment: α-Glucosidase activity assay (pNPG substrate); details: for IC50: mean ± SEM of triplicate experiments, final concentration 20 to 300 μM
Procedure: α-Glucosidase enzymatic activity was assayed spectrophotometrically as described previously. Briefly, 60 μL of reaction mixture containing 20 μL of 100 mM phosphate buffer (pH 6.8), 20 μL of 2.5 mM pNPG, and 20 μL of sample (final concentration ranging from 20 to 300 μM, dissolved in 10% DMSO) was added to each well. After incubation at 37 °C for 5 min in the dark, 20 μL of yeast α-glucosidase (0.2 U/mL) in 10 mM phosphate buffer (pH 6.8) was added. The plate was then incubated at 37 °C for 15 min in the dark, after which the reaction was stopped by the addition of 80 μL of 0.2 M sodium carbonate solution. The absorbance was immediately recorded at 405 nm using a microplate spectrophotometer (Molecular Devices). The control consisted of the same reaction mixture but with the sample solution replaced by an equivalent volume of phosphate buffer. […] The inhibition percentage (%) was obtained using the same equation as in the PTP1B enzymatic assay.

human recombinant PTP1B [2] = biological target: T1, human recombinant PTP1B; experiment: Enzyme kinetics analysis of PTP1B (Lineweaver–Burk and Dixon plots); details: for PTP1B Inhibition Type: determined by the Lineweaver–Burk plot
Procedure: The inhibition type and inhibition constant (Ki) of the two compounds were determined using Lineweaver–Burk and Dixon plots. Each line of the inhibitors penetrate the same point at the x-intercept, indicating noncompetitive-type inhibition, and the x-axis represent-Kiwhen 1/V = 0. […] The Dixon plot is an established method for determining the enzyme inhibition type and the Ki value for an enzyme-inhibitor complex, where the value of the x-axis indicates Ki.
In order to determine the inhibition mechanism, two complementary kinetics methods were used: Lineweaver–Burk and Dixon plots. The level of enzymatic inhibition at various concentrations of test sample was evaluated by monitoring the effect of different substrate concentrations in Dixon plots (single reciprocal plots). Dixon plots for PTP1B inhibition were obtained in the presence of different concentrations of pNPP. Using Lineweaver–Burk plots (double reciprocal plots), the inhibition modes of the compounds were determined at various concentrations of pNPP with different concentrations of compounds. The enzymatic procedures were the same as for the PTP1B assay methods. The types of inhibition were investigated by interpreting the Dixon plots, in which the value of the x-axis indicates Ki.

Compound | IC50 (human recombinant PTP1B [1]) [µM] | IC50 (yeast α-glucosidase) [µM] | α-glucosidase inhibition (in words) (yeast α-glucosidase; at any of the tested concentrations) | Ki (human recombinant PTP1B [2]; determined by the Dixon plot) [µM] | PTP1B Inhibition Type (human recombinant PTP1B [2])
COc1ccc(-c2oc3c(CC=C(C)C)c(OC4OC(CO)C(O)C(O)C4O)cc(O)c3c(=O)c2OC2OC(C)C(O)C(O)C2OC2OC(CO)C(O)C(O)C2O)cc1 (centres unmarked) [Epimedin A, epimedin A] | > 300 | 444.1 ± 3.8 |  |  | 
COc1ccc(-c2oc3c(CC=C(C)C)c(O[C@@H]4O[C@H](CO)[C@@H](O)[C@H](O)[C@H]4O)cc(O)c3c(=O)c2O[C@@H]2O[C@@H](C)[C@H](O)[C@@H](O)[C@H]2O[C@@H]2OC[C@@H](O)[C@H](O)[C@H]2O)cc1 [Epimedin B, epimedin B] | > 300 | 452 ± 5.36 |  |  | 
COc1ccc(-c2oc3c(CC=C(C)C)c(O[C@@H]4O[C@H](CO)[C@@H](O)[C@H](O)[C@H]4O)cc(O)c3c(=O)c2O[C@@H]2O[C@@H](C)[C@H](O)[C@@H](O)[C@H]2O[C@@H]2O[C@@H](C)[C@H](O)[C@@H](O)[C@H]2O)cc1 [Epimedin C, epimedin C] | > 300 | 403.9 ± 1.53 |  |  | 
COc1ccc(-c2oc3c(CC=C(C)C)c(O[C@@H]4O[C@H](CO)[C@@H](O)[C@H](O)[C@H]4O)cc(O)c3c(=O)c2O[C@@H]2O[C@@H](C)[C@H](O)[C@@H](O)[C@H]2O)cc1 [Icariin, icariin] | > 300 |  | did not inhibit α-glucosidase activity at any of the tested concentrations |  | 
COc1ccc(-c2oc3c(CC=C(C)C)c(O)cc(O)c3c(=O)c2O)cc1 [Icaritin, icaritin] | 11.6 ± 1.39 | 74.42 ± 0.01 |  | 11.4 | Non-competitive
icariside II |  | 106.6 ± 0.44 |  |  | Non-competitive
